Data as given in patent US9492554B2, “Methods and compositions related to viral inhibition” (Clemson University Research Foundation (CURF), priority 2009, dated 2016).

Columns and labels:
TAR RNA = experiment: UV melting of TAR RNA in presence of ligands (Tm, ΔTm); assay type: binding, HIV-1; conditions: for ΔTm (° C.): TAR RNA with ligand vs control, Table 10; for Tm (° C.): TAR RNA with ligand, control without ligand 69.3
Protocol: The reactions were done in the presence of 10 mM sodium cacodylate, 0.5 mM EDTA, 0.1 mM MgCl2 pH 7.0. The heating rate was 0.3° C./min.
UV melting studies of TAR were performed in the presence and absence of various ligands (FIG. 13).

HIV-1 RRE RNA = HIV-1 RRE RNA competition binding assay (fluorescence polarization, Rev peptide probe); conditions: 100 nM RRE RNA, 10 nM Rev peptide, 25° C., 1 hour; Table 16
Protocol: Before used, HIV-1 RRE RNA (5′-GGUCUGGGCGCAGCGCAAGCUGACGGUACAGGCC-3′, Thermo Scientific) in 10 μM batch in sterile water was heated to 95° C. for 3 min, and then cooled to ambient temperature over 1 hour.
The relative affinity of each compound for HIV-1 RRE RNA was determined using fluorescence polarization-based competitive binding assay with a fluorescein-labeled HIV-1 Rev peptide. The anisotropy experiments were performed with a Spectra Max Fluorimeter (Molecular Devices) at 25° C., with excitation and emission wavelengths of 485 and 525 nm, respectively. All samples were prepared in 96 well plates in binding buffer (30 mM Hepes, 100 mM KCl, 40 mM NaCl, 10 mM NH4OAc, 10 mM Guanidinium Hydrochloride, 2 mM MgCl2, 0.5 mM EDTA, pH 7.4) with 0.01% triton-X100 (Sigma). The binding data reported for each conjugate are the averages of 3˜5 individual measurements.
A solution of 100 nM RRE RNA and 10 nM fluorescein-labeled HIV-1 Rev peptide was incubated at 25° C. After 10 min, appropriate concentrations (0 nM to 500 μM) of the antagonists were added; total volume of the incubation solution was […]. After 1 hour, the amount of the dissociated fluorescent probe was determined by the Spectra Max fluorescence plate reader. The experimental dose-response data for a given antagonist were fit to a sigmoidal dose-response nonlinear regression model on GraphPad Prism 4.0 to afford the IC50 values for each conjugates (Table 16).

HIV-1 TAR RNA = HIV-1 TAR RNA competition FRET binding assay (Tat peptide probe); conditions: 100 nM TAR RNA, 100 nM Tat peptide, 25° C., 60 min
Protocol: Before used, HIV-1 TAR RNA (5′-GGC AGA UCUGAG CCU GGG AGC UCU CUG CC-3′, Thermo Scientific) in 10 μM batch in sterile water was heated to 95° C. for 4.5 min, and then cooled rapidly in ice bath for 5 min. This snap-cooling causes the RNA to adopt the kinetically favored hairpin rather than thermodynamically favored duplexes.
The relative affinity of each polyamine for HIV-1 TAR RNA was determined using Fluorescence Resonance Energy Transfer (FRET)-based competitive binding assay with a fluorescein-labeled HIV-1 Tat peptide as described in the literature. The fluorescence experiments were performed with a Spectra Max Fluorimeter (Molecular Devices) at 25° C., with excitation and emission wavelengths of 495 and 570 nm, respectively. All samples were prepared in 96 well plates in 1×TK buffer (50 mM Tris, 20 mM KCl, pH=7.4) with 0.1% Trixton-100 (Sigma).
To a solution of 100 nM HIV-1 TAR RNA and 100 nM fluorescein-labeled HIV-1 Tat peptide, appropriate concentrations (0 nM to 100 μM) of the antagonists were added at 25° C.; total volume of the incubation solution was 80 μL. After 60 min, fluorescence changes of the sample solution were determined by the Spectra Max Fluorimeter Detector.

HIVNL4-3 in MT-2 cells [1] = experiment: HIV antigen synthesis in treated cells, immunofluorescence assay (IFA); assay type: cell-based
Protocol: (§1) Anti-HIV activities can be routinely checked by measuring the percentage of cells positive for HIV antigens using immunofluorescence assay (IFA) and for the release of pelletable reverse transcriptase (RT) into the supernatant. For these assays, 500,000 MT-2 cells in 1 ml of media were added to the wells of a 24 well tissue culture plate. Next, 0.5 ml of 4× concentrated compound was added to triplicate wells of the plate. The cells and compounds were incubated for 1 hr at 37 C. Finally, 0.5 ml of HIVNL4-3, produced in H9 cells (a CD4+ lymphoblastoid cell line), 100,000 cpm of RT activity per well, was added to each well. Virus control wells contained no compounds. This inoculum is at a multiplicity of infection less than 1. On days 2, 4, and 6, 0.75 mls of supernatants were removed and placed into individual microfuge tubes for RT assay. Next, cells were resuspended in the media and 0.5 mls of the total remaining volume was removed for IFA. Cells were combined from their triplicate infections, pelleted, and the enriched cells were air-dried onto glass slides. The dried cells were fixed in acetonemethanol (50:50). After fixing, cells were stained with HIV immunoglobulin, washed in PBS, and counter-stained with FITC-conjugated goat and human IgG. Slides were washed in PBS and the percentage of HIV-positive cells was determined by epifluorescence (Robinson et al. J Acquire Immune Defic Syndr 2:33-42, 1989).

HIVNL4-3 in MT-2 cells [2] = experiment: Release of reverse transcriptase into the culture supernatant; assay type: cell-based, HIV
Excerpt: as §1, with “The disclosed conjugates also reduce the amount of reverse transcriptase (RT) released into the cell culture supernatant upon in vitro cell culture experiments (Table 14 below). […] It is possible that even though the cells are positive for HIV, they are making much fewer unspliced transcripts, and thus the virion release into the media remains suppressed. […] Anti-HIV” for “Anti-HIV”, “On days 2, 4, and 6, 0.75 mls of supernatants were removed and placed into individual microfuge tubes for RT assay.” left out, “[…] The supernatants from each well were precipitated at 4 C overnight in a solution including 30% polyethylene glycol. After precipitation, precipitate was lysed in a solution containing Triton X100, Tris buffer, and DTT. RT activity of each aliquot was determined as incorporation of 3H-dTTP into a poly rA-oligo dT template. After a one hour assay at 37 C, the incorporated dTTP was precipitated onto a ZetaProbe (BioRad) membrane. Slots were excised and placed into liquid scintillation cocktail. After overnight incubation, counts per minute for each sample was determined on a beta counter. Results were calculated as cpm/ml of original culture supernatant (Robinson et al.” for “J Acquire Immune Defic Syndr 2:33-42, 1989).”

Compound	ΔTm (° C.) (TAR RNA) [°C]	Tm (° C.) (TAR RNA) [°C]	IC50 (HIV-1 RRE RNA) [nM]	IC50 (HIV-1 TAR RNA; Table 17) [nM]	5% Toxicity microM (cells) [µM]	IC50 (HIV-1 TAR RNA; Table 18) [nM]	percentage of cells positive for HIV antigens, Day 2 (HIVNL4-3 in MT-2 cells [1]; Day 2, MT-2 cells, microM: DPA119 24, DPA52 25, DPA53 9, DPA54 17, DPA55 4, DPA56 8, DPA121 25, virus control 15%)	percentage of cells positive for HIV antigens, Day 4 (HIVNL4-3 in MT-2 cells [1]; Day 4, same concentrations, virus control 100%) [%]	percentage of cells positive for HIV antigens, Day 6 (HIVNL4-3 in MT-2 cells [1]; Day 6, same concentrations, virus control 100%) [%]	Release of reverse transcriptase into the culture supernatant, Day 2 (HIVNL4-3 in MT-2 cells [2]; Day 2, mean of triplicate infections (SD), microM: DPA119 24, DPA52 25, DPA53 9, DPA54 17, DPA55 4, DPA56 8, DPA121 25, virus control 46,029)	Release of reverse transcriptase into the culture supernatant, Day 4 (HIVNL4-3 in MT-2 cells [2]; Day 4, mean of triplicate infections, virus control 928,112)	Release of reverse transcriptase into the culture supernatant, Day 6 (HIVNL4-3 in MT-2 cells [2]; Day 6, mean of triplicate infections, virus control 1,078,741)
CN1CCN(c2ccc3nc(-c4ccc(OCCn5cc(CCCCCCc6cn(C[C@H]7OC(OC8C(O)[C@H](N)CC(N)[C@H]8O[C@H]8OC(CN)[C@@H](O)C(O)C8N)C(O)C7O[C@H]7OC(CN)[C@@H](O)C(O)C7N)nn6)nn5)cc4)[nH]c3c2)CC1 (stereo partly shown) [DPA122]	5.4	74.8	5.4 ± 2.4	825 ± 145	46	–	–	–	–	–	–	–
CN1CCN(c2ccc3nc(-c4ccc(OCCn5cc(-c6ccc(-c7cn(C[C@H]8OC(OC9C(O)[C@H](N)CC(N)[C@H]9O[C@H]9OC(CN)[C@@H](O)C(O)C9N)C(O)C8O[C@H]8OC(CN)[C@@H](O)C(O)C8N)nn7)cc6)nn5)cc4)[nH]c3c2)CC1 (stereo partly shown) [DPA118]	4.8	74.1	–	12100 ± 5400	>184	–	–	–	–	–	–	–
CN1CCN(c2ccc3nc(-c4ccc(OCc5cn(C[C@H]6OC(OC7C(O)[C@H](N)CC(N)[C@H]7O[C@H]7OC(CN)[C@@H](O)C(O)C7N)C(O)C6O[C@H]6OC(CN)[C@@H](O)C(O)C6N)nn5)cc4)[nH]c3c2)CC1 (stereo partly shown) [DPA123]	–	–	768 ± 309	–	–	155 ± 49	–	–	–	–	–	–
CN1CCN(c2ccc3nc(-c4ccc(OCCn5cc(CCCc6cn(C[C@H]7OC(OC8C(O)[C@H](N)CC(N)[C@H]8O[C@H]8OC(CN)[C@@H](O)C(O)C8N)C(O)C7O[C@H]7OC(CN)[C@@H](O)C(O)C7N)nn6)nn5)cc4)[nH]c3c2)CC1 (stereo partly shown) [DPA120]	3.9	73.2	15300 ± 6900	1700 ± 300	94	–	–	–	–	–	–	–
CN1CCN(c2ccc3nc(-c4ccc(OCc5cn(CCCCCCCCCCn6cc(CCCCc7cn(C[C@H]8OC(OC9C(O)[C@H](N)CC(N)[C@H]9O[C@H]9OC(CN)[C@@H](O)C(O)C9N)C(O)C8O[C@H]8OC(CN)[C@@H](O)C(O)C8N)nn7)nn6)nn5)cc4)[nH]c3c2)CC1 (stereo partly shown) [DPA117]	6.3	75.6	15500 ± 6300	1300 ± 200	41	–	–	–	–	–	–	–
CN1CCN(c2ccc3nc(-c4ccc(OCc5cn(CCn6cc(CCCCc7cn(C[C@H]8OC(OC9C(O)[C@H](N)CC(N)[C@H]9O[C@H]9OC(CN)[C@@H](O)C(O)C9N)C(O)C8O[C@H]8OC(CN)[C@@H](O)C(O)C8N)nn7)nn6)nn5)cc4)[nH]c3c2)CC1 (stereo partly shown) [DPA113]	3.1	72.4	–	61300 ± 18100	176	–	–	–	–	–	–	–
C/C(CCc1cn(C[C@H]2O[C@@H](O[C@H]3C(O[C@H]4OC(CN)C(O)[C@H](O)C4N)C(N)C[C@@H](N)C3O)[C@@H](O)C2O[C@H]2O[C@@H](CN)C(O)C(O)C2N)nn1)=C(/C)CCc1cn(C[C@H]2O[C@@H](O[C@H]3C(O[C@H]4OC(CN)C(O)[C@H](O)C4N)C(N)C[C@@H](N)C3O)[C@@H](O)C2O[C@H]2O[C@@H](CN)C(O)C(O)C2N)nn1 (stereo partly shown) [DPA 55]	–	–	–	–	8	–	3-5%	30	100	20,072 (3,748) cpm/ml	107,933 cpm/ml	305,277 cpm/ml
CN1CCN(c2ccc3nc(-c4ccc(OCc5cn(CCCCCCCCn6cc(CCCCc7cn(C[C@H]8OC(OC9C(O)[C@H](N)CC(N)[C@H]9O[C@H]9OC(CN)[C@@H](O)C(O)C9N)C(O)C8O[C@H]8OC(CN)[C@@H](O)C(O)C8N)nn7)nn6)nn5)cc4)[nH]c3c2)CC1 (stereo partly shown) [DPA116]	3.8	73.1	–	4300 ± 600	83	–	–	–	–	–	–	–
CN1CCN(c2ccc3nc(-c4ccc(OCc5cn(CCCCCCn6cc(CCCCc7cn(C[C@H]8OC(OC9C(O)[C@H](N)CC(N)[C@H]9O[C@H]9OC(CN)[C@@H](O)C(O)C9N)C(O)C8OC8OC(CN)C(O)C(O)C8N)nn7)nn6)nn5)cc4)[nH]c3c2)CC1 (stereo partly shown) [DPA114]	3.8	73.1	–	11600 ± 2300	11	–	–	–	–	–	–	–
